Laboratory results published in US9815851B2, “Pyrrolo carboxamides as modulators of orphan nuclear receptor RAR-related orphan receptor-gamma (RORγ, NR1F3) activity and for the treatment of chronic inflammatory and autoimmune diseases” (PHENEX PHARMACEUTICALS AG, priority 2011, dated 2017).
Where two headings read alike, the source gives them in different places.

Tests used:
[1] = target: T1, RORγ ligand binding domain (LBD) (Homo sapiens, UniProt P51449); assay: TR-FRET Activity Assay (ligand sensing, RORγ-LBD / coactivator peptide interaction, LANCE); assay type: biochemical
T1 construct: made in house; host or cells: E. coli BL-21 (BL3), vector pDEST15
T1 sequence (P51449 269-508 limits assumed): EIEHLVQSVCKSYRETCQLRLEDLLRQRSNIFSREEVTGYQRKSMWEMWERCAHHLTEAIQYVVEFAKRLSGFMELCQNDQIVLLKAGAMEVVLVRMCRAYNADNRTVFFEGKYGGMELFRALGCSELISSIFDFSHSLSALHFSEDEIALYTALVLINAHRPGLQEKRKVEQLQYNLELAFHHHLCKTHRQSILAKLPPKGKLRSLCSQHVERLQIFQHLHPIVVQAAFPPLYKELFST

RORγ = target: T2, RORγ (UniProt P51449); assay: RORγ Gal4 Reporter Gene Assay in 293T cells (firefly and renilla luciferase); assay type: cell-based, human
T2 sequence (P51449 1-518): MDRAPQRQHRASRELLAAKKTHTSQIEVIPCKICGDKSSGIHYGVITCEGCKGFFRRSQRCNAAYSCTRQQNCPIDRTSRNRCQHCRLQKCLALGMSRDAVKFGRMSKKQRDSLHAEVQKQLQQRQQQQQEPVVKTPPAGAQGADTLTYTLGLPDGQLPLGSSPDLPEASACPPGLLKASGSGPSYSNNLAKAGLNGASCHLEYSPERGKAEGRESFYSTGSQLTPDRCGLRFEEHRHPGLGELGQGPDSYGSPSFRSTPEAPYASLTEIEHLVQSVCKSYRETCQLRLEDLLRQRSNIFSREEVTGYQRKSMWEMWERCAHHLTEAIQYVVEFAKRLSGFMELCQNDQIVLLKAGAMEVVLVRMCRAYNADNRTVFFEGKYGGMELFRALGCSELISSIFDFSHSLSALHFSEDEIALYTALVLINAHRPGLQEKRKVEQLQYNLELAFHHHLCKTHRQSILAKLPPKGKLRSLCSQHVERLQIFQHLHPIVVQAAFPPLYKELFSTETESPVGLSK

[2] = first value of the cell FRET/FF/REN, TR-FRET activity assay, read-out: pIC50 (FRET) (converted)
[3] = second value of the cell, Gal4 reporter gene assay in 293T cells, firefly luciferase
[4] = third value of the cell, Gal4 reporter gene assay in 293T cells, renilla normalised luciferase

| Structure (SMILES) | IC50 [1, 2] [nM] | pIC50 (FF) (RORγ; [3]) | pIC50 (REN) (RORγ; [4]) | IC50 [1] [nM] | pIC50 (FF) (RORγ) | pIC50 (REN) (RORγ) |
| --- | --- | --- | --- | --- | --- | --- |
| Cc1c(C(=O)N[C@H]2CC[C@H](C(=O)O)CC2)cc(-c2cc(C(C)(C)C)c3c(c2)C2(CCO3)CC2)n1CC1CCCCC1 [17/57] | 794 | 7.4 | 7.5 |  |  |  |
| Cc1c(C(=O)NCC(C)(C)C(N)=O)cc(-c2cc(C(C)(C)C)cc(C3(C)CC3)c2)n1CC1CCCCC1 [1/85] | 316 | 7.7 | 7.7 |  |  |  |
| Cc1c(C(=O)NC2COC2)cc(-c2cc(C(=O)NC(C)(C)C)cc(C(F)(F)F)c2)n1CC1CCCCC1 [Example 15, 5-(3-(tert-Butylcarbamoyl)-5-(trifluoromethyl)phenyl)-1-(cyclohexylmethyl)-2-methyl-N-(oxetan-3-yl)-1H-pyrrole-3-carboxamide] |  |  |  | 501 | 6.3/6.9/6.9 | 6.3/6.9/6.9 |
| CC(C)(C)NS(=O)(=O)c1ccc(-c2cc(C(=O)NCCC(C)(C)C(=O)O)c(F)n2CC2CCCCC2)c2ccccc12 [20/9] | 1260 | 7.8 | 7.6 |  |  |  |
| Cc1c(C(=O)NC2CCOCC2)cc(-c2ccc(S(=O)(=O)NC(C)(C)C)c(C(F)(F)F)n2)n1CC1CCCCC1 [17/245] | > 20000 | 5.7 | 5.7 |  |  |  |
| Cc1c(C(=O)NC2CCOCC2)cc(-c2ccc(S(=O)(=O)NC(C)(C)C)c(C(F)(F)F)c2)n1CC1(O)CCCCC1 [17/255] | 7940 | < 4.7 | < 4.7 |  |  |  |
| Cc1c(C(=O)NC2CCOCC2)cc(-c2cc3c(c(C(C)(C)C)c2)OCCC3O)n1CC1CCCCC1 (stereo not drawn) [17/105] | 2000 | 6.1 | 6.3 |  |  |  |
| Cc1c(C(=O)NC2C[S+]([O-])C2)cc(-c2cc(C(C)C)c3c(c2)C(C)(C)N(C(C)C)S3(=O)=O)n1CC1CCCCC1 (stereo not drawn) [2/3] | 1580 | 6.5 | 6.7 |  |  |  |
| Cc1c(C(=O)NCC(C)(C)O)cc(-c2cc(C(C)(C)C)cc(C3(C)CC3)c2)n1CC1CCCCC1 [1/87] |  |  |  | 316 | 6.5/7.2/7.2 | 6.5/7.2/7.2 |
| Cc1c(C(=O)NCC2CCN(S(C)(=O)=O)CC2)cc(-c2cc(C(C)(C)C)cc(C3(C)CC3)c2)n1CC1CCCCC1 [17/345] | 316 | 7.3 | 7.4 |  |  |  |
| Cc1c(C(=O)NC2CCOCC2)cc(-c2cc(NCC(C)(C)C)nc(C(F)(F)F)c2)n1CC1CCCCC1 [17/159] | 1580 | 6.8 | 6.9 |  |  |  |
| Cc1c(C(=O)N2CC(N3CCOCC3)C2)cc(-c2cc(C(C)(C)C)cc(C3(C)CC3)c2)n1CC1CCCCC1 [17/344] | 631 | 7.3 | 7.5 |  |  |  |
| Cc1c(C(=O)NC2CCOCC2)cc(-c2ccc(S(=O)(=O)N3CCCC3(C)C)c(C(F)(F)F)c2)n1CC1CCCCC1 [17/84] | > 20000 | 7.2 | 7.2 |  |  |  |
| Cc1c(C(=O)N[C@H]2C[C@H](C(=O)O)C2)cc(-c2cc(C(F)(F)F)c3c(c2)C(C)(C)C(=O)N3C)n1CC1CCCCC1 [17/149] | 1260 | 6.6 | 6.6 |  |  |  |
| Cc1c(C(=O)NC2CCOCC2)cc(-c2ccc(S(=O)(=O)NC(C)(C)C)c(C(F)(F)F)c2)n1CC1CCC1 [17/215] | 316 | 7.5 | 7.3 |  |  |  |
| Cc1c(C(=O)NCC2(CO)COC2)cc(-c2cc(C(C)(C)C)c3c(c2)C2(CCO3)CC2)n1CC1CCCCC1 [17/8] | 794 | 7.2 | 7.2 |  |  |  |
| Cc1c(C(=O)NC2CCOCC2)cc(-c2ccc(-c3nnc(C(C)(C)C)o3)c(C(C)(C)C)c2)n1CC1CCCCC1 [17/251] |  |  |  | 501 | 6.3/6.9/6.9 | 6.3/6.9/6.9 |
| Cc1c(C(=O)NC2CCOCC2)cc(-c2ccc(S(=O)(=O)NC(C)(C)C)c(OC(F)(F)F)c2)n1CC1CCCCC1 [17/166] | 158 | 7.8 | 8.0 |  |  |  |
| Cc1c(C(=O)NC2CCOCC2)cc(-c2ccc(C(=O)NC3CCCCC3)c(C(F)(F)F)c2)n1CC1CCCCC1 [6/9] | 10000 | 6.4 | 6.2 |  |  |  |
| Cc1c(C(=O)NCC(C)(C)O)cc(-c2ccc(S(=O)(=O)NC(C)(C)C)c3c(F)cccc23)n1CC1CCCCC1 [17/365] | 1260 | 7.0 | 7.0 |  |  |  |

| Structure (SMILES) | IC50 [1, 2] [nM] | pIC50 (FF) (RORγ; [3]) | pIC50 (REN) (RORγ; [4]) | IC50 [1] [nM] | pIC50 (FF) (RORγ) | pIC50 (REN) (RORγ) |
| --- | --- | --- | --- | --- | --- | --- |
| Cc1c(C(=O)N2CC(C(=O)O)C2)cc(-c2cc(C(C)(C)C)c3c(c2)C2(CCO3)CC2)n1CC1CCCCC1 [17/52] | 1580 | 6.7 | 6.7 |  |  |  |
| Cc1c(C(=O)NCC(C)(C)C(=O)O)cc(-c2cc(C(C)(C)C)c3c(c2)C(C)(C)C(=O)N3C)n1CC1CCCCC1 [17/49] | 2000 | 7.0 | 7.1 |  |  |  |
| Cc1c(C(=O)NCC(C)(C)C(=O)NCCS(C)(=O)=O)cc(-c2cc(C(C)(C)C)c3c(c2)C2(CCO3)CC2)n1CC1CCCCC1 [11/4] | 398 | 6.9 | 7.0 |  |  |  |
| Cc1c(C(=O)NC2COC2)cc(-c2ccc(C(=O)N(C)CC(C)(C)C)c(C(C)(C)C)c2)n1CC1CCCCC1 [1/33] | 794 | 6.6 | 6.5 |  |  |  |
| Cc1c(C(=O)NCCCO)cc(-c2cc(C(C)(C)C)cc(C(C)(C)C)c2)n1CC1CCCCC1 [1/65] | 398 | 6.6 | 6.6 |  |  |  |
| Cc1c(C(=O)NCCN2CCN(C)CC2)cc(-c2cc(C(C)(C)C)cc(C3(C)CC3)c2)n1CC1CCCCC1 [17/346] |  |  |  | 5010 | 5.3/<4.7/<4.7 | 5.3/<4.7/<4.7 |
| Cc1c(C(=O)NC2CCOCC2)cc(-c2ccc(CN3CCOCC3)c(C(F)(F)F)c2)n1CC1CCCCC1 [Example 33, 1-(Cyclohexylmethyl)-2-methyl-5-(4-(morpholinomethyl)-3-(trifluoromethyl)phenyl)-N-(tetrahydro-2H-pyran-4-yl)-1H-pyrrole-3-carboxamide] | 3160 | 6.2 | 6.3 |  |  |  |
| Cc1c(C(=O)NC2COC2)cc(-c2cc(C(C)(C)C)c(F)c(C(C)(C)C)c2)n1CC1CCCCC1 [1/77] | 200 | 6.9 | 7.0 |  |  |  |
| Cc1c(C(=O)NCC(C)(C)C(=O)O)cc(-c2cc(C(C)(C)C)cc(C3(C)CC3)c2)n1CC1CCCCC1 [17/60] | 1580 | 7.6 | 7.6 |  |  |  |
| Cc1c(C(=O)NCC2(O)CCS(=O)(=O)CC2)cc(-c2cc(C(C)(C)O)cc(C3(C)CC3)c2)n1CC1CCCCC1 [17/319] | 2000 | 6.5 | 6.6 |  |  |  |
| Cc1c(C(=O)NCC(C)(C)O)cc(-c2cc(C(=O)NC(C)(C)C)cc(C3(C)CC3)c2)n1CC1CCCCC1 [1/111] |  |  |  | 398 | 6.4/7.4/7.4 | 6.4/7.4/7.4 |
| Cc1c(C(=O)NCC2COC2)cc(-c2cc(C(C)(C)C)c3c(c2)C2(CCO3)CC2)n1CC1CCCCC1 [1/100] | 251 | 7.2 | 7.2 |  |  |  |
| Cc1c(C(=O)NC2CCC(C)(C(=O)O)CC2)cc(-c2ccc(S(=O)(=O)NC(C)(C)C)c(C(F)(F)F)c2)n1CC1CCCCC1 (stereo not drawn) [17/259] | 1000 | 7.2 | 7.2 |  |  |  |
| Cc1c(C(=O)NCC(N)=O)cc(-c2cc(C(C)(C)C)cc(C(C)(C)C)c2)n1CC1CCCCC1 [1/5] | 1000 | 6.3 | 6.2 |  |  |  |
| Cc1c(C(=O)NC2CCOCC2)cc(-c2ccc(S(=O)(=O)N[C@H](C)C(F)(F)F)c(C(F)(F)F)c2)n1CC1CCCCC1 [17/142] | 398 | 7.4 | 7.6 |  |  |  |
| Cc1c(C(=O)NC2CCOCC2)cc(-c2ccc(S(=O)(=O)NC(C)(C)CO)c(C(F)(F)F)c2)n1CC1CCCCC1 [17/107] | 1000 | 6.9 | 6.9 |  |  |  |
| Cc1c(C(=O)N2CC3(CCOCC3)C2)cc(-c2ccc(S(=O)(=O)NC(C)(C)C)c3ccccc23)n1CC1CCCCC1 [17/266] | 251 | 8.3 | 8.5 |  |  |  |
| Cc1c(C(=O)NC2COC2)cc(-c2cc(C(C)(C)C)c3c(c2)C(C)(C)CC(=O)N3)n1CC1CCCCC1 [1/18] | 631 | 7.1 | 7.0 |  |  |  |
| Cc1c(C(=O)N[C@H]2CCOC2)cc(-c2cc(C(C)(C)C)cc(C3(C)CC3)c2)n1CC1CCCCC1 [17/65] |  | 7.7 | 7.7 | 200 |  |  |
| Cc1c(C(=O)NCC(C)(C)O)cc(-c2cc(C(C)(C)C)nc(C3(C)CC3)n2)n1CC1CCCCC1 [17/356] | 398 | 6.7 | 6.7 |  |  |  |
